Source: paper PMC5715595 (British Journal of Pharmacology, 2017)
Like-named read-outs stand apart in the source and are kept apart here.

Tests used:
Kv11.1 (hERG) channel = Kv11.1 (hERG) channel (Homo sapiens, UniProt Q12809); test: cell-based
Method: A whole‐cell patch clamp study was performed on isolated cells at room temperature. Cells were initially clamped at −80 mV, and biphasic pulses (4.8 s at +20 mV and then for 5 s at −50 mV) were applied at a 0.067 Hz frequency. […] Peak tail current amplitudes for each concentration were measured and averaged for four consecutive stimuli. Vehicle control tested in parallel evaluated the spontaneous run‐down of hERG current over time in testing conditions and the corresponding correction was applied.

anaesthetized rabbits = tested on: anaesthetized rabbits
Method: All the other experimental groups were 100% female. Animals were anaesthetized with sodium pentobarbital (45–60 mg·kg^−1 i.v.), maintained on a heated pad and mechanically ventilated with room air. […] A fluid‐filled catheter was inserted into the carotid artery to measure systemic arterial blood pressure and for blood sampling. A venous catheter was implanted into the jugular vein for infusion of drugs. Standard surface ECG leads I, II and III were monitored continuously to measure ECG intervals and the occurrence of ventricular tachyarrhythmia. Measurements of arterial blood pressures were calculated over 30 s duration at baseline and every 5 min. […] Then, for all determinations, the means of 10–30 consecutive sinus beats were automatically calculated at each time point (i.e. at the end of the stabilization period and then every 5 until 60 min after starting drug infusion) or until the occurrence of premature ventricular beats. Parameters recorded were systolic, diastolic and mean arterial blood pressure (mmHg), heart rate (beats·min^‐1 calculated from RR interval) as well as PR, QRS and QT/QTU intervals (ms), amplitudes of T‐wave and U‐wave (mV) and rhythm disturbances retrieved from ECG signals. […] Arrhythmia were scored according to the following scale: 0 being no arrhythmia, 1 being premature beats, 2 being auriculo‐ventricular blocks, 3 being ventricular tachycardia and 4 being TdP; and scores correspond to the average of maximal life‐threatening arrhythmias recorded during the experiment. […] Haemodynamic and ECG recordings were monitored continuously over 60 min following the start of infusion.

in vivo = details: both sexes, Beagle, dog, in vivo; for concentration at 1 h: po, 1 h after administration, read-out: total drug exposure (serum level)
Method: (§1) Telemetry implantation was performed as previously described (Lacroix et al., 2003). Approximately 2 weeks later, blood pressure, heart rate and ECG intervals were recorded per blocks of 30 s at the time points of interest for 30 min before and for 24 h after administration of test compound. ECG traces were inspected visually for any rhythm or conduction abnormalities (such as arrhythmia, tachyarrhythmia, atrioventricular conduction blocks), and values of PR, QRS and QT intervals were obtained by a validated manual reading procedure (mean calculated from three non‐consecutive sinus beats). The QT interval measured was corrected for heart rate using the Fridericia formula (QTcF) and the van de Waters formula. […] Five to six dogs (two or three males and three females) were studied with at least 48 h between each test session.
(§2) At the highest dose of 15 mg·kg^−1 p.o., this route provided an exposure (59 ± 25 ng·mL^−1), without any adverse CNS events (i.e. pre‐convulsive signs) in this species, close to the exposure recorded in humans at therapeutic doses. […] Pitolisant serum levels were assessed by LC‐mass spectrometry using a validated analytical method.

[1] = tested on: conscious telemetered dogs; test: in vivo; details: dog
Method: as §1, §2

α2A‐adrenoceptor = α2A‐adrenoceptor (Homo sapiens, UniProt P08913); test: Affinity at α2A-adrenoceptor; assay type: binding
[2] = in house data
[3] = cumulative i.v. infusion 1, 3.3 and 10 mg·kg^−1 in successive 20 min steps

Chain of Kv11.1 (hERG) channel (Q12809 whole entry): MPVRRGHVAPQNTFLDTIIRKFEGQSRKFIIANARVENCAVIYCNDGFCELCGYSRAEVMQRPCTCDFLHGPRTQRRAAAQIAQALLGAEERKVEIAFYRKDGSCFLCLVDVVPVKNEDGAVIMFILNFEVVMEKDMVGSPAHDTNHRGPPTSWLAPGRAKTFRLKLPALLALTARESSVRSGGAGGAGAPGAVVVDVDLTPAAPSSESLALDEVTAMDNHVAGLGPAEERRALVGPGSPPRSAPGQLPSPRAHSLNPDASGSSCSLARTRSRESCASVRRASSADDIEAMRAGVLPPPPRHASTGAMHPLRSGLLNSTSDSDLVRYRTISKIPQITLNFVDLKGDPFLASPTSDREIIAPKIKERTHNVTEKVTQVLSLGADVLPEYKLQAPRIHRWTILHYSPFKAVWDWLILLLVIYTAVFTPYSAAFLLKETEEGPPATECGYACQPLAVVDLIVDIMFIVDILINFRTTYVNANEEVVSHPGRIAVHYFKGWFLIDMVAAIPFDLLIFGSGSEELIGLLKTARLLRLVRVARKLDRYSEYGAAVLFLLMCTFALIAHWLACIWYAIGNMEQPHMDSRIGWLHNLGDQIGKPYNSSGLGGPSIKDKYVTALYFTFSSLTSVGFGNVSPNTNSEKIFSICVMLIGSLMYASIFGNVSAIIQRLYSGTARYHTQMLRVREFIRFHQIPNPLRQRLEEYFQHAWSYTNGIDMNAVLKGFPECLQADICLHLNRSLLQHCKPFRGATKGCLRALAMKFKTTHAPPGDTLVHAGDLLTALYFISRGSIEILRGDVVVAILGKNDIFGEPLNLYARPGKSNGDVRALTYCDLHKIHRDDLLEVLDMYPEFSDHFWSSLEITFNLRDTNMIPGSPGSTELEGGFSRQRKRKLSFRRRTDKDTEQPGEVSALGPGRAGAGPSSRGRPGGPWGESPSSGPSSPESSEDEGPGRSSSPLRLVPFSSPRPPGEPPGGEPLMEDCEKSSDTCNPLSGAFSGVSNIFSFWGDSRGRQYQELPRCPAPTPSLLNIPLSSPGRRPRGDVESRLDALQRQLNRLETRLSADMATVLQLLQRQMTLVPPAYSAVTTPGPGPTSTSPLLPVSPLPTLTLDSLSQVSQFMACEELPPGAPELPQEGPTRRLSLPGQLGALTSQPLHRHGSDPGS
Chain of α2A‐adrenoceptor (P08913 whole entry): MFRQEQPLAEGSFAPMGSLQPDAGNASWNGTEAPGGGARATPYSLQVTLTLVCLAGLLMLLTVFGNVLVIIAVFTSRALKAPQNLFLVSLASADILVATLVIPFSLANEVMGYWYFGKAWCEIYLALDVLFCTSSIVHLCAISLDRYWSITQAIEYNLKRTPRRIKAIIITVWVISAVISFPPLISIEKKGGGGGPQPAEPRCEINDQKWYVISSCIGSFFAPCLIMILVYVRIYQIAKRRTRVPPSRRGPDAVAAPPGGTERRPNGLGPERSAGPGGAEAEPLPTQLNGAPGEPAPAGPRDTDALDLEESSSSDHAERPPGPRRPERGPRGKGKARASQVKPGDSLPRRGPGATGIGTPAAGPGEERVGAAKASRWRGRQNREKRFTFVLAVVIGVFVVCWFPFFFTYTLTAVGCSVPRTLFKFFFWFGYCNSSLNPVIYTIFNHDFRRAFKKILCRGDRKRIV

## Cl.Clc1ccc(CCCOCCCN2CCCCC2)cc1 [pitolisant, 1‐{3‐[3‐(4‐chlorophenyl)propoxy]propyl}piperidine, hydrochloride]
Kv11.1 (hERG) channel
  IC50: 1.3 µM
Kv11.1 (hERG) channel; assuming 96% protein-binding and free concentration of […] at 40 mg maximal therapeutic dose
  safety margin (hERG IC50 versus free drug concentration): around 100
Anaesthetized rabbits; 1 mg·kg^−1 infused over 1 h, 10 min into infusion
  QTc interval (ms) (mean ± SEM): 154 ± 2 ms
Anaesthetized rabbits; 1 mg·kg^−1 infused over 1 h, 20 min into infusion
  QTc interval (ms) (mean ± SEM): 156 ± 2 ms
Anaesthetized rabbits; 1 mg·kg^−1 infused over 1 h, 30 min into infusion
  QTc interval (ms) (mean ± SEM): 156 ± 2 ms
Anaesthetized rabbits; 1 mg·kg^−1 infused over 1 h, 40 min into infusion
  QTc interval (ms) (mean ± SEM): 156 ± 2 ms
Anaesthetized rabbits; 1 mg·kg^−1 infused over 1 h, 50 min into infusion
  QTc interval (ms) (mean ± SEM): 157 ± 2 ms
Anaesthetized rabbits; 1 mg·kg^−1 infused over 1 h, 60 min into infusion
  QTc interval (ms) (mean ± SEM): 157 ± 3 ms
Anaesthetized rabbits; 1 mg·kg^−1 infused over 1 h, baseline
  QTc interval (ms) (mean ± SEM): 152 ± 3 ms
Anaesthetized rabbits; 10 mg·kg^−1 dose range (successively over 20 min at 1, 3.3 and 10 mg·kg^−1), 10 min into infusion
  QTc interval (ms) (mean ± SEM): 148 ± 3 ms
Anaesthetized rabbits; 10 mg·kg^−1 dose range (successively over 20 min at 1, 3.3 and 10 mg·kg^−1), 20 min into infusion
  QTc interval (ms) (mean ± SEM): 149 ± 2 ms
Anaesthetized rabbits; 10 mg·kg^−1 dose range (successively over 20 min at 1, 3.3 and 10 mg·kg^−1), 30 min into infusion
  QTc interval (ms) (mean ± SEM): 151 ± 2 ms
Anaesthetized rabbits; 10 mg·kg^−1 dose range (successively over 20 min at 1, 3.3 and 10 mg·kg^−1), 40 min into infusion
  QTc interval (ms) (mean ± SEM): 151 ± 1 ms
Anaesthetized rabbits; 10 mg·kg^−1 dose range (successively over 20 min at 1, 3.3 and 10 mg·kg^−1), 50 min into infusion
  QTc interval (ms) (mean ± SEM): 148 ± 4 ms
Anaesthetized rabbits; 10 mg·kg^−1 dose range (successively over 20 min at 1, 3.3 and 10 mg·kg^−1), 60 min into infusion
  QTc interval (ms) (mean ± SEM): 147 ± 2 ms
Anaesthetized rabbits; 10 mg·kg^−1 dose range (successively over 20 min at 1, 3.3 and 10 mg·kg^−1), baseline
  QTc interval (ms) (mean ± SEM): 144 ± 4 ms
Anaesthetized rabbits; cumulative i.v. infusion 1, 3.3 and 10 mg·kg^−1, from total 13.8 μM
  free drug concentration: ~ 0.55 μM
Anaesthetized rabbits; [3]
  change in QTc interval vs. baseline: 2 ± 1%
  decrease in heart rate: 17 ± 4%
  maximal total drug exposure: 4140 ± 450 ng/mL
  total drug concentration: 13.8 ± 1.5 µM
Anaesthetized rabbits; pitolisant 10 mg·kg^−1
  effect on ventricular premature beats, ventricular tachycardia and TdP induced by clofilium (1 mg·kg^−1): abolished
Anaesthetized rabbits; pitolisant single dose 1 mg·kg^−1 i.v. over 60 min
  change in QTc interval: +3 ± 1%
Anaesthetized rabbits; up to 10 mg·kg^−1 by i.v. slow infusion
  ventricular arrhythmias: never observed
In vivo; iv, 1.5 mg·kg^−1 i.v., 5 min, read-out: total drug concentration
  concentration at 5 min: 0.294 ± 0.04 µg/mL
In vivo; iv, 1.5 mg·kg^−1 i.v., 30 min, read-out: total drug concentration
  concentration at 30 min: 0.231 ± 0.036 µg/mL
In vivo; 5 mg·kg^−1 p.o.
  concentration at 1 h: 0.0035 ± 0.001 µg/mL
In vivo; 10 mg·kg^−1 p.o.
  concentration at 1 h: 0.0158 ± 0.0058 µg/mL
In vivo; 15 mg·kg^−1 p.o.
  concentration at 1 h: 0.059 ± 0.025 µg/mL
[1]; both, Beagle, in vivo, iv
  free drug concentration: ~ 0.14 μM
[1]; 4.5 mg·kg^−1 i.v., for up to 4 h after injection
  effect on mean arterial blood pressure and heart rate: increases in mean arterial blood pressure and heart rate
[1]; 4.5 mg·kg^−1 i.v., return to baseline 30 min after injection
  effect on QTcF interval: decrease in QTcF interval for 20 min
[1]; 15 mg·kg^−1 p.o., 1 h after administration
  total drug exposure (serum level): 59.2 ± 24.6 ng/mL
[1]; over the test period, 6/6 dogs
  arrhythmia or other morphological changes in the ECG: No arrhythmia or other morphological changes in the ECG
[1]; single doses 5, 10 and 15 mg·kg^−1 p.o. or 1.5 mg·kg^−1 i.v., compared to vehicle
  effect on heart rate, mean arterial blood pressure, QTc interval or any other ECG parameter: no effect
α2A‐adrenoceptor
  Ki: 2.9 µM
[2]
  protein-binding: 96%
